Assay results reported in ChEMBL document CHEMBL2029265, “2-(Pyrrolidin-1-yl)ethyl-3,4-dihydroisoquinolin-1(2H)-one derivatives as potent and selective histamine-3 receptor antagonists” (J Med Chem, 2012).

Key:
Histamine H3 receptor [1] = biological target: Histamine H3 receptor (Homo sapiens, UniProt Q9Y5N1); test: Displacement of [3H]-(R)-alpha-methylhistamine from human H3 receptor expressed in HEK293T cells after 120 mins by scintillation counting; format: cell-based, HEK-293T
CYP3A4 = CYP3A4 (Homo sapiens, UniProt P08684); test: Inhibition of CYP3A4 at 3 uM; format: ADME
Chain of CYP3A4 (P08684 whole entry): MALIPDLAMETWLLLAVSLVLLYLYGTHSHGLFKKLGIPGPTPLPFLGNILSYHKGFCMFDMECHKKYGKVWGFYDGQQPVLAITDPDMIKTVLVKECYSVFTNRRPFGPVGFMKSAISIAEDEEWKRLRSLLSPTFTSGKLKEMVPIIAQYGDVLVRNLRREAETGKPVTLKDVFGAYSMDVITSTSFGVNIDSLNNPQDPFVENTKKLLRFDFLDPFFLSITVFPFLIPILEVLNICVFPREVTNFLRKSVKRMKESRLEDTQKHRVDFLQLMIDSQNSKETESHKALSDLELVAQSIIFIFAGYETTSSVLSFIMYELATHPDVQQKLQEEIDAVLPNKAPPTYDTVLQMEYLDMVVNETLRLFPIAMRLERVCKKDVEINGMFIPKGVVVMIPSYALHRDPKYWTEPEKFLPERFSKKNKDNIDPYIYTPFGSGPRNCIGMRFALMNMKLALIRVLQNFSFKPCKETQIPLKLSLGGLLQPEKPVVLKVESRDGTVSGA

Histamine H3 receptor [2] = biological target: Histamine H3 receptor (Rattus norvegicus, UniProt Q9QYN8); test: Displacement of [3H]-(R)-alpha-methylhistamine from rat H3 receptor expressed in HEK293T cells after 120 mins by scintillation counting; format: cell-based, HEK-293T
Chain of Histamine H3 receptor (Rattus norvegicus, UniProt Q9QYN8) (Q9QYN8 whole entry): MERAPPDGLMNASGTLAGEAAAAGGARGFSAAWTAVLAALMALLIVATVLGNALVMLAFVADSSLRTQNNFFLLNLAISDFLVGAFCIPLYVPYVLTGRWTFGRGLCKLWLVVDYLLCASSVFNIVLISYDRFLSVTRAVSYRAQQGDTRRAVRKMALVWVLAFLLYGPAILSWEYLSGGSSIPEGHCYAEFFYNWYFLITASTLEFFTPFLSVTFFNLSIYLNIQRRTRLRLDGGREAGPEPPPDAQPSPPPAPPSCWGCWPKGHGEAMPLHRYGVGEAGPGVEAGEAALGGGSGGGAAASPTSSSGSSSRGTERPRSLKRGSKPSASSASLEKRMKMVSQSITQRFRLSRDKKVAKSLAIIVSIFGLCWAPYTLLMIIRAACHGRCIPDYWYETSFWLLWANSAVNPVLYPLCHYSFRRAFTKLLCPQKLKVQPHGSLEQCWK

Chain of Histamine H3 receptor (Homo sapiens, UniProt Q9Y5N1) (Q9Y5N1 whole entry): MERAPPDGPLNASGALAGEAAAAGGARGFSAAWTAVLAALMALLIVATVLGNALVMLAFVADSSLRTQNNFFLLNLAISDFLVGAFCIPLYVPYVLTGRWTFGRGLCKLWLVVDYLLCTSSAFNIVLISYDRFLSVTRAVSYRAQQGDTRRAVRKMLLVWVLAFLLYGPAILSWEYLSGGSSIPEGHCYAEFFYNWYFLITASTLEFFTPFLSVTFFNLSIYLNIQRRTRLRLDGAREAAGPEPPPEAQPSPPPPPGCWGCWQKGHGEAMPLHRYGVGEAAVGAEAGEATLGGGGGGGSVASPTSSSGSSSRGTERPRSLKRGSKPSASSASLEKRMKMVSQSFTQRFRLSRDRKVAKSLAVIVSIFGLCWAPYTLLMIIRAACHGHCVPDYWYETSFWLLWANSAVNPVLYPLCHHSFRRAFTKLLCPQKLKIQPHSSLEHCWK

Compound O=C1c2ccc(-c3ccc(F)cc3)cc2CCN1CCN1CCCCCC1 has a Ki (Histamine H3 receptor [1]) of 5.7 nM, an inhibition at 3 µM (CYP3A4) of 47% and a Ki (Histamine H3 receptor [2]) of 47 nM.
